Earlier results in US20250195455A1, “COMBINATION NASAL AND ORAL THERAPY FOR WEIGHT LOSS” (priority 2022, published 2025).
Read-outs that look alike come from different tables or passages of the source.

Details: for Average weight loss/one year: vs. 3% placebo; for evidence of weight loss: no drug trials for weight loss

Compound	patients that have 5% weight loss/12 weeks [%]	patients that have 10% weight loss/12 weeks [%]	Average weight loss/one year [%]	Average weight loss vs. placebo (vs. placebo) [kg./year]	other results
C[C@@H](Cc1ccccc1)N(C)Cc1ccccc1 [Benzphetamine]	80	50	10	–	–
CCN(CC)C(C)C(=O)c1ccccc1 (centres unmarked) [Diethylpropion]	80	50	10	–	–
CNCCC(Oc1ccc(C(F)(F)F)cc1)c1ccccc1 (centres unmarked) [Fluoxetine]	–	–	–	–	evidence of weight loss: No evidence of weight loss
C[C@H]1CNCCc2ccc(Cl)cc21 [Lorcaserin]	–	–	–	–	weight loss/year vs. placebo (per year, vs. placebo): 3-5%
CCCCCCCCCCC[C@@H](C[C@@H]1OC(=O)[C@H]1CCCCCC)OC(=O)[C@H](CC(C)C)NC=O [Orlistat]	–	–	–	–	weight loss (vs. placebo)/6 months (6 months, vs. placebo): 5%; net loss (decreased fat absorption): approximately 500 kcal/day; net loss (equivalent of the kcal/day net loss): 1 lb./week
C[C@H]1[C@H](c2ccccc2)OCCN1C [Phendimetrazine]	80	50	10	–	–
CC(C)(N)Cc1ccccc1 [Phentermine]	80	50	10	–	–
CN[C@H]1CC[C@@H](c2ccc(Cl)c(Cl)c2)c2ccccc21 [Sertraline]	–	–	–	–	evidence of weight loss: No evidence of weight loss
CC1(C)O[C@@H]2[C@@H](CO[C@@]3(COS(N)(=O)=O)OC(C)(C)O[C@@H]23)O1 [Topiramate]	–	–	–	–	efficacy (vs. placebo) (vs. placebo): Minimal, if any efficacy
Albeglutide	–	–	–	2.9	–
Dulaglutide	–	–	–	2.9	–
Lixisenatide	–	–	–	2.9	–
Semaglutide (HAEGTFTSDVSSYLEGQAAKEFIAWLVKGRG; Glucagon-like peptide 1(7-37) semaglutide; Aib8, R34K, C18 diacid side chain; UniProt P01275 98-128, looked up) [GLP-1 agonist]	–	–	–	2.9	–
